From PubChem BioAssay AID1259407 (Chemical Carcinogenesis Research Information System (CCRIS), 2018)
Activity calls are given as the source filed them. No rule for the calls is given here.

Tested on: CCRIS mutagenicity, Ames/micronucleus/aberration tests
Assay: CCRIS mutagenicity studies
[1] = Test System: AMES SALMONELLA TYPHIMURIUM, Strain/Indicator: TA100, Metabolic Activation: NONE, Method: PREINCUBATION
[2] = Test System: AMES SALMONELLA TYPHIMURIUM, Strain/Indicator: TA1535, Metabolic Activation: NONE, Method: PREINCUBATION
[3] = Test System: AMES SALMONELLA TYPHIMURIUM, Strain/Indicator: TA1537, Metabolic Activation: NONE, Method: PREINCUBATION
[4] = Test System: AMES SALMONELLA TYPHIMURIUM, Strain/Indicator: TA100, Metabolic Activation: NONE, Method: STANDARD PLATE

Compound: CC(C)c1ccccc1O
- mutagenic call (Test System: AMES SALMONELLA TYPHIMURIUM, Strain/Indicator: TA98, Metabolic Activation: NONE, Method: PREINCUBATION): inactive; negative
- mutagenic call (Test System: AMES SALMONELLA TYPHIMURIUM, Strain/Indicator: TA98, Metabolic Activation: RAT LIVER S-9, PHENOBARBITAL AND BETA-NAPHTHOFLAVONE, Method: PREINCUBATION): inactive; negative
- mutagenic call [1]: inactive; negative
- mutagenic call (Test System: AMES SALMONELLA TYPHIMURIUM, Strain/Indicator: TA100, Metabolic Activation: RAT LIVER S-9, PHENOBARBITAL AND BETA-NAPHTHOFLAVONE, Method: PREINCUBATION): inactive; negative
- mutagenic call [2]: inactive; negative
- mutagenic call (Test System: AMES SALMONELLA TYPHIMURIUM, Strain/Indicator: TA1535, Metabolic Activation: RAT LIVER S-9, PHENOBARBITAL AND BETA-NAPHTHOFLAVONE, Method: PREINCUBATION): inactive; negative
- mutagenic call [3]: inactive; negative
- mutagenic call (Test System: AMES SALMONELLA TYPHIMURIUM, Strain/Indicator: TA1537, Metabolic Activation: RAT LIVER S-9, PHENOBARBITAL AND BETA-NAPHTHOFLAVONE, Method: PREINCUBATION): inactive; negative
- mutagenic call (Test System: E.COLI, Strain/Indicator: WP2UVRA/PKM101, Metabolic Activation: NONE, Method: PREINCUBATION): inactive; negative
- mutagenic call (Test System: E.COLI, Strain/Indicator: WP2UVRA/PKM101, Metabolic Activation: RAT LIVER S-9, PHENOBARBITAL AND BETA-NAPHTHOFLAVONE, Method: PREINCUBATION): inactive; negative

Compound: CCCOc1cc(N=Nc2ccc(N(CC)CC)cc2)ccc1N=Nc1c(S(=O)(=O)O)cc2ccc(N)cc2c1O
- mutagenic call (Test System: AMES SALMONELLA TYPHIMURIUM, Strain/Indicator: TA98, Metabolic Activation: RAT, LIVER, S-9, AROCLOR 1254, Method: STANDARD PLATE): active; positive
- mutagenic call [4]: inactive; negative
- mutagenic call (Test System: AMES SALMONELLA TYPHIMURIUM, Strain/Indicator: TA100, Metabolic Activation: RAT, LIVER, S-9, AROCLOR 1254, Method: STANDARD PLATE): inactive; negative
- mutagenic call (Test System: AMES SALMONELLA TYPHIMURIUM, Strain/Indicator: TA1538, Metabolic Activation: NONE, Method: STANDARD PLATE): inactive; negative
- mutagenic call (Test System: AMES SALMONELLA TYPHIMURIUM, Strain/Indicator: TA1538, Metabolic Activation: RAT, LIVER, S-9, AROCLOR 1254, Method: STANDARD PLATE): active; positive

Compound: C1O[C@@H]1[C@H]1CO1
- mutagenic call (End Point: IN VITRO CHROMOSOMAL ABERRATIONS, Test System: HUMAN PERIPHERAL LYMPHOCYTES, Metabolic Activation: NONE, Method: FISH (CHROMOSOME PAINTING)): active; positive (structural changes)
- mutagenic call (End Point: IN VIVO MICRONUCLEUS, Test System: PERIPHERAL BLOOD RETICULOCYTES, Species: MOUSE, Strain/Sex: BALB/C/MALE, Route: IP INJECTION, ONCE): inactive; positive (d 1 -2); positive at both dose levels on d 2 (negative by d 3)
- mutagenic call (End Point: IN VIVO MICRONUCLEUS, Test System: SPERMATID, Species: RAT, Strain/Sex: SPRAGUE-DAWLEY/MALE, Route: IP INJECTION): active; positive
- mutagenic call (End Point: IN VIVO MICRONUCLEUS, Test System: SPERMATIDS, Species: MOUSE, Strain/Sex: (102XC3H)F1/MALE, Route: IP INJECTION): active; positive (at 30 mg at 3 d after exposure)
- mutagenic call (End Point: IN VIVO MICRONUCLEUS, Test System: SPERMATIDS, Species: MOUSE, Strain/Sex: BALB/C/MALE, Route: IP INJECTION): active; positive
- mutagenic call (End Point: IN VIVO MICRONUCLEUS, Test System: SPERMATIDS, Species: RAT, Strain/Sex: LEWIS/MALE, Route: IP INJECTION): active; positive
- mutagenic call (End Point: IN VIVO MICRONUCLEUS, Test System: SPLENOCYTES, Species: MOUSE, Strain/Sex: (102XC3H)F1/MALE, Route: IP INJECTION): active; positive
- mutagenic call (End Point: IN VIVO MICRONUCLEUS, Test System: SPLENOCYTES, Species: RAT, Strain/Sex: LEWIS/MALE, Route: IP INJECTION): active; positive
- mutagenic call [4]: active; positive
- mutagenic call (Test System: AMES SALMONELLA TYPHIMURIUM, Strain/Indicator: TA1535, Metabolic Activation: NONE, Method: STANDARD PLATE): active; positive
- mutagenic call (Test System: CHINESE HAMSTER OVARY, Strain/Indicator: AS52/6-THIOGUANINE, Metabolic Activation: NONE): active; positive
- mutagenic call (Test System: MOUSE LYMPHOMA, Strain/Indicator: L5178Y (TK+/TK-), Metabolic Activation: NONE, Method: SUSPENSION/PLATE): active; positive
- mutagenic call (Test System: MOUSE LYMPHOMA, Strain/Indicator: L5178Y (TK+/TK-), Metabolic Activation: RAT, LIVER, S-9, AROCLOR 1254, Method: SUSPENSION/PLATE): active; positive
- mutagenic call (Test System: MOUSE LYMPHOMA, Strain/Indicator: L5178Y (TK+/TK-), Metabolic Activation: RAT, LIVER, S-9, Method: SUSPENSION/PLATE): active; positive
- mutagenic call (Test System: UDS MOUSE SPERM CELLS, Strain/Indicator: THY INCORP, Metabolic Activation: IN VIVO, Method: LIQUID SCINTILLATION COUNTING): active; positive

Compound: O=C1C=Cc2ccccc2C1=O
- mutagenic call (Test System: AMES SALMONELLA TYPHIMURIUM, Strain/Indicator: TA97, Metabolic Activation: NONE, Method: PREINCUBATION): active; positive
- mutagenic call (Test System: AMES SALMONELLA TYPHIMURIUM, Strain/Indicator: TA97, Metabolic Activation: RAT, LIVER, S-9, PHENOBARBITAL AND 5,6-BENZOFLAVONE, Method: PREINCUBATION): inactive; negative
- mutagenic call (Test System: AMES SALMONELLA TYPHIMURIUM, Strain/Indicator: TA97A, Metabolic Activation: NONE, Method: PREINCUBATION): active; positive
- mutagenic call (Test System: AMES SALMONELLA TYPHIMURIUM, Strain/Indicator: TA98, Metabolic Activation: RAT, LIVER, S-9, PHENOBARBITAL AND 5,6-BENZOFLAVONE, Method: PREINCUBATION): inactive; negative
- mutagenic call [1]: active; positive
- mutagenic call (Test System: AMES SALMONELLA TYPHIMURIUM, Strain/Indicator: TA100, Metabolic Activation: RAT, LIVER, S-9, PHENOBARBITAL AND 5,6-BENZOFLAVONE, Method: PREINCUBATION): active; positive
- mutagenic call (Test System: AMES SALMONELLA TYPHIMURIUM, Strain/Indicator: TA102, Metabolic Activation: RAT, LIVER, S-9, PHENOBARBITAL AND 5,6-BENZOFLAVONE, Method: PREINCUBATION): inactive; negative
- mutagenic call (Test System: AMES SALMONELLA TYPHIMURIUM, Strain/Indicator: TA104, Metabolic Activation: NONE, Method: PREINCUBATION): active; positive
- mutagenic call (Test System: AMES SALMONELLA TYPHIMURIUM, Strain/Indicator: TA104, Metabolic Activation: RAT, LIVER, S-9, PHENOBARBITAL AND 5,6-BENZOFLAVONE, Method: PREINCUBATION): active; positive
- mutagenic call [2]: inactive; negative
- mutagenic call (Test System: AMES SALMONELLA TYPHIMURIUM, Strain/Indicator: TA1535, Metabolic Activation: RAT, LIVER, S-9, PHENOBARBITAL AND 5,6-BENZOFLAVONE, Method: PREINCUBATION): inactive; negative
- mutagenic call [3]: inactive; negative
- mutagenic call (Test System: AMES SALMONELLA TYPHIMURIUM, Strain/Indicator: TA1537, Metabolic Activation: RAT, LIVER, S-9, PHENOBARBITAL AND 5,6-BENZOFLAVONE, Method: PREINCUBATION): inactive; negative
- mutagenic call (Test System: AMES SALMONELLA TYPHIMURIUM, Strain/Indicator: TA1538, Metabolic Activation: NONE, Method: PREINCUBATION): inactive; negative
- mutagenic call (Test System: AMES SALMONELLA TYPHIMURIUM, Strain/Indicator: TA1538, Metabolic Activation: RAT, LIVER, S-9, PHENOBARBITAL AND 5,6-BENZOFLAVONE, Method: PREINCUBATION): inactive; negative
- mutagenic call (Test System: AMES SALMONELLA TYPHIMURIUM, Strain/Indicator: TA2637, Metabolic Activation: NONE, Method: PREINCUBATION): active; positive
- mutagenic call (Test System: AMES SALMONELLA TYPHIMURIUM, Strain/Indicator: TA2637, Metabolic Activation: RAT, LIVER, S-9, PHENOBARBITAL AND 5,6-BENZOFLAVONE, Method: PREINCUBATION): inactive; negative
